Patent publication US12295962B2, “Polymorphic compounds and uses thereof” (AskAt Inc., priority 2018, dated 2025)

Tests used:
Type in all cases: in vivo, BALB/c mice
[1] = tested on: CT-26 mouse colon adenocarcinoma; experiment: Anti-tumor activity in the CT-26 colon adenocarcinoma mouse model (with anti-PD-1, 10 mice per cohort); details: for tumor growth kinetics: during the period of dosing, compared with vehicle treated mice, FIG. 22
Method: The antitumor activity of Compound B as a single agent and combined with a mouse anti-PD-1 antibody was evaluated in the CT-26 mouse colon adenocarcinoma model grown in BALB/c mice. Mice were inoculated subcutaneously in the right flank with 5×10^5 tumor cells.
When tumors reached an average size of 71 mm^3 (6 days after tumor cell inoculation) dosing was initiated. The dosing regimens in the 8 separate cohorts comprising 10 mice each are as follows: […]

[2] = tested on: CT-26 mouse colon adenocarcinoma; experiment: Anti-tumor activity in the CT-26 model, additional experiment (with anti-PD1, 7 mice per cohort); details: during the period of dosing; single agents (Compound B 15 mg/kg BID p.o.; anti-PD1 10 mg/kg BIW i.p.); compared with vehicle group; FIG. 26
Method: (§1) The antitumor activity of Compound B as a single agent and combined with a mouse anti-PD1 antibody was evaluated in the CT-26 mouse colon adenocarcinoma model grown in BALB/c mice in an additional experiment. Mice were inoculated subcutaneously in the right flank with 5×10^5 tumor cells. When tumors reached an average size of 91 mm^3 dosing was initiated. The dosing regimens in the 4 separate cohorts comprising 7 mice each are as follows: […]

[3] = tested on: 4T1 mouse breast cancer; experiment: Anti-tumor activity in the 4T1 breast cancer mouse model (with anti-CTLA4)
Method: The antitumor activity of Compound B (as described in example 14 above) as a single agent and combined with a mouse anti-CTLA4 antibody was evaluated in the 4T1 mouse breast cancer model grown in BALB/c mice. Mice were inoculated subcutaneously in the right flank with 3×10^5 tumor cells. When tumors reached an average size of 100 mm^3 (7 days after tumor cell inoculation) dosing was initiated.

[4] = tested on: 4T1 mouse breast cancer; experiment: Anti-tumor activity in the 4T1 model, additional experiment (with anti-PD1, 7 mice per cohort); details: during the period of dosing; Compound B 15 mg/kg BID; compared with vehicle group and anti-PD1 dosed alone; FIG. 27
Method: as §1, with “4T1” for “CT-26”, “breast cancer” for “colon adenocarcinoma”, “3×10^5” for “5×10^5”, “97” for “91”

[5] = tested on: immune cells of CT-26 tumors; experiment: Immune cell composition of CT-26 tumors by multi-color flow cytometry; details: after 7 days dosing, Compound B 15 mg/kg BID p.o., anti-PD1 10 mg/kg Q3D i.p., vs vehicle
Method: The immune cell composition of Compound B (as described in example 14 above) as a single agent and combined with a mouse anti-PD1 antibody was evaluated in the CT-26 mouse colon adenocarcinoma model grown in BALB/c mice. Mice were inoculated subcutaneously in the right flank with 5×10^5 tumor cells. When tumors reached an average size of 85 mm^3 dosing was initiated. The dosing regimens in the 4 separate cohorts comprising 10 mice each are listed as follows:
After dosing animals for 7 days, tumors were resected and used to prepare single cell suspensions. Live cells representing tumor and immune cells were stained with cocktails of antibodies targeting multiple immune cell markers (anti-CD45, anti-CD3, anti-CD4, anti-CD8, anti-CD25, anti-FoxP3, anti-PD-1, anti-CD11c) conjugated to different fluorescent tags. The stained cells were fixed in 4% paraformaldehyde and quantified using a multi-color flow cytometer (Fortessa). The data was analyzed with FloJo software.

[6] = 99 days after tumor inoculation, 10 mice per cohort

With `C[C@H](NC(=O)c1cc(Cl)cnc1Oc1cccc(F)c1)c1ccc(C(=O)O)cc1` [Compound B] the mice still alive [1, 6] was 1 out of 10, the mice tumor free [1, 6] was 1 out of 10 and the tumor growth kinetics ([1]; 15 mg/kg BID p.o.) was “not notably different”. The tumor growth kinetics ([1]; 15 mg/kg QD p.o.) was “not notably different”, the tumor growth kinetics [2] was “less than that of the vehicle group” and the mice still alive ([3]; 47 days after tumor inoculation, 10 mice per group) was “none”. For the same molecule, the tumor growth kinetics ([3]; during the period of dosing, single agents (Compound B 15 mg/kg BID; anti-CTLA4), relative to vehicle treated mice, FIG. 24) was “decreased relative to the vehicle treated mice”, the tumor growth kinetics [4] was “less than that of the vehicle group and anti-PD1 when dosed alone” and the “regulatory T cells (CD45, CD4, FoxP3, CD25 positive) in tumor” value ([5]; FIG. 28a) was “significant decrease”. For the same molecule, the “percentage of dendritic cells (CD45, CD11c positive) in tumor” value ([5]; FIG. 28b) was “increased percentage” and the “percentage of activated T cells (CD45, CD3, CD8; CD25 expression) in tumor” value ([5]; FIG. 28c) was “did not”.
